We go through six compounds from patent US20070293530A1, “SULFAMIDE AND SULFAMATE DERIVATIVES AS HISTONE DEACETYLASE INHIBITORS” (METHYLGENE INC., priority 2006, published 2007).

pIC50: −log10 of the molar value. Bounds are passed on as bounds.

The target in this test is HDAC enzyme. Nature of the test: Inhibition of Histone Deacetylase Enzymatic Activity (Assay Examples 1 and 2). The format is biochemical. Particulars: HDAC isoform not specified; fluorogenic Boc-Lys(Ac)-AMC or Boc-Lys(trifluoroacetyl)-AMC substrate. How it is done:
The following protocol is used to assay the compounds of the invention. In the assay, the buffer used is 25 mM HEPES, pH 8.0, 137 mM NaCl, 2.7 mM KCl, 1 mM MgCl2 and the subtrate is Boc-Lys(Ac)-AMC in a 50 mM stock solution in DMSO. The enzyme stock solution is 4.08 μg/mL in buffer.
The compounds are pre-incubated (2 μl in DMSO diluted to 13 μl in buffer for transfer to assay plate) with enzyme (20 μl of 4.08 μg/ml) for 10 minutes at room temperature (35 μl pre-incubation volume). The mixture is pre-incubated for 5 minutes at room temperature. The reaction is started by bringing the temperature to 37° C. and adding 16 μl substrate. Total reaction volume is 50 μl. The reaction is stopped after 20 minutes by addition of 50 μl developer, prepared as directed by Biomol (Fluor-de-Lys developer, Cat. #KI-105). A plate is incubated in the dark for 10 minutes at room temperature before reading (λEx=360 nm, λEm=470 nm, Cutoff filter at 435 nm).
Alternatively, HDAC inhibitory activity was determined using the following assay.
A 30 mM stock of Boc-Lys(trifluoroacetyl)-AMC substrate is prepared in DMSO. 2 μL of test compound in DMSO is diluted to 50 μL in buffer (25 mM HEPES, pH 8.0, 137 mM NaCl, 2.7 mM KCl, 1 mM MgCl2, 0.1% BSA) and pre-incubated with HDAC enzyme (30 μL of a final enzyme concentration of 0.1-0.2 nM) for 10 minutes at room temperature. Reaction is started by adding 18 μL Boc-Lys(trifluoroacetyl)-AMC substrate and incubating at 37° C. for 20-30 minutes. The reaction is stopped by adding 50 μL trypsin (1 mg/mL) and a known HDAC inhibitor (such as LAQ-824). The plate is then incubated in the dark for 20 minutes at room temperature and read with Ex=360 nm, Em=470 nm, cutoff filter at 435 nm.
In the table, A≦0.2 μM; 0.2 μM<B≦0.5 μM; […]; and 1 μM<D≦6 μM.

In the case of `COC(=O)N[C@@H](CCCCNS(N)(=O)=O)C(=O)Nc1nc(-c2ccccc2)cs1` [Compound 319, (S)-methyl 1-oxo-1-(4-phenyl-thiazol-2-ylamino)-6-(sulfamoyl-amino)-hexan-2-ylcarbamate], the pIC50 was ≥ 6.70.
As to `COc1ccc(-c2nc([C@H](CCCCNS(N)(=O)=O)NC(=O)OCc3ccccc3)c[nH]2)cc1` [Compound 327, (S)-benzyl 1-(2-(4-methoxyphenyl)-1H-imidazol-4-yl)-5-(sulfamoylamino)pentylcarbamate], the pIC50 is ≥ 6.70.
`NS(=O)(=O)NCCCC[C@H](NC(=O)OCc1ccccc1)c1n[nH]c(-c2ccccc2)n1` [Compound 335, (S)-benzyl 1-(5-phenyl-1H-1,2,4-triazol-3-yl)-5-(sulfamoylamino)pentylcarbamate]: the pIC50 is ≥ 6.70.
To `Cc1ccc(-c2nc([C@H](CCCCNS(N)(=O)=O)NC(=O)OCc3ccccc3)c[nH]2)cc1` [Compound 348, (S)-benzyl 5-(sulfamoyl-amino)-1-(2-p-tolyl-1H-imidazol-4-yl)pentyl-carbamate] belongs 6.30 to 6.70; to `NS(=O)(=O)NCCCC[C@H](NC(=O)OCc1ccccc1)c1csc(-c2ccc(Br)cc2)n1` [Compound 361, (S)-benzyl 1-(2-(4-bromo-phenyl)-thiazol-4-yl)-5-(sulfamoyl-amino)-pentyl-carbamate], 6.30 to 6.70.
To `NS(=O)(=O)NCCCC[C@H](NC(=O)OCc1ccccc1)c1csc(Nc2ccccc2)n1` [Compound 364, (S)-benzyl 1-(2-(phenyl-amino)-thiazol-4-yl)-5-(sulfamoyl-amino)-pentyl-carbamate] belongs 6.00 to 6.30.
